In ChEMBL document CHEMBL1152560, “Substituted 2-arylbenzothiazoles as kinase inhibitors: hit-to-lead optimization” (Bioorg Med Chem, 2009):

Columns and labels:
[1] = target: Receptor-type tyrosine-protein kinase FLT3 (Homo sapiens) (UniProt P36888); assay: Residual activity of wild type FLT3 at 1 uM by microplate scintillation counting
[2] = target: Homeodomain-interacting protein kinase 3 (Homo sapiens) (UniProt Q9H422); assay: Residual activity of HIPK3 at 1 uM by microplate scintillation counting
Sequence of Homeodomain-interacting protein kinase 3 (Homo sapiens) (Q9H422 whole entry, looked up): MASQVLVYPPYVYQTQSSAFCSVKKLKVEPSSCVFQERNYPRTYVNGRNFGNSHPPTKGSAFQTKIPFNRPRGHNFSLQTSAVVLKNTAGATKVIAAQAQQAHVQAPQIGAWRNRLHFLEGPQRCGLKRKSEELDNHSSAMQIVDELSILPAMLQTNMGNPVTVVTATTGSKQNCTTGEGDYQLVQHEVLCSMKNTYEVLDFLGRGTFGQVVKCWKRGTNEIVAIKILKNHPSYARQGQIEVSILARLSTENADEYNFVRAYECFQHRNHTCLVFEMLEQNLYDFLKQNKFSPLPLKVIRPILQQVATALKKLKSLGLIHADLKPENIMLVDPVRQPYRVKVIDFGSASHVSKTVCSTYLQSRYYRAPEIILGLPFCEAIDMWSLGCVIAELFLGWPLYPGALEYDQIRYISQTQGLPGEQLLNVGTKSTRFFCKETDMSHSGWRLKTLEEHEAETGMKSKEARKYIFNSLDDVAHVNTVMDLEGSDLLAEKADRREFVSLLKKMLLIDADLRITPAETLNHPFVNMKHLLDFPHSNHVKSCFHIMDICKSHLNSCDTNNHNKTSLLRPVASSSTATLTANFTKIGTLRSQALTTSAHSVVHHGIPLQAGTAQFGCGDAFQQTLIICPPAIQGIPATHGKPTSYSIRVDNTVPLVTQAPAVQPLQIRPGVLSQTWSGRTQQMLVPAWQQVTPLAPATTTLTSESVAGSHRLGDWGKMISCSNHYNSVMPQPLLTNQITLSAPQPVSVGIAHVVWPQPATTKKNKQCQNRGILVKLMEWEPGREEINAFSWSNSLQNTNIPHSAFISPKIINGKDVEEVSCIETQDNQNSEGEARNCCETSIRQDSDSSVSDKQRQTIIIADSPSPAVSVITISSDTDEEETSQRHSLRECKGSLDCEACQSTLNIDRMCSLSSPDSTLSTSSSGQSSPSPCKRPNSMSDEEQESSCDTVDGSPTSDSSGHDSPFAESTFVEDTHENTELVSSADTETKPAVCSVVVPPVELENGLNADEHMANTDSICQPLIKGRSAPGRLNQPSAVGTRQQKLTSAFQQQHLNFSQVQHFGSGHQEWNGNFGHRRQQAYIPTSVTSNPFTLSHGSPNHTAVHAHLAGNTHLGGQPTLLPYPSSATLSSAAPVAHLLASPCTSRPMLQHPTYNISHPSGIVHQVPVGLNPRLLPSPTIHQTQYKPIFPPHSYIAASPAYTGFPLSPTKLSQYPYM

[3] = target: Mitogen-activated protein kinase 9 (Homo sapiens) (UniProt P45984); assay: Residual activity of JNK2 at 1 uM by microplate scintillation counting
Sequence of Mitogen-activated protein kinase 9 (Homo sapiens) (P45984 whole entry, looked up): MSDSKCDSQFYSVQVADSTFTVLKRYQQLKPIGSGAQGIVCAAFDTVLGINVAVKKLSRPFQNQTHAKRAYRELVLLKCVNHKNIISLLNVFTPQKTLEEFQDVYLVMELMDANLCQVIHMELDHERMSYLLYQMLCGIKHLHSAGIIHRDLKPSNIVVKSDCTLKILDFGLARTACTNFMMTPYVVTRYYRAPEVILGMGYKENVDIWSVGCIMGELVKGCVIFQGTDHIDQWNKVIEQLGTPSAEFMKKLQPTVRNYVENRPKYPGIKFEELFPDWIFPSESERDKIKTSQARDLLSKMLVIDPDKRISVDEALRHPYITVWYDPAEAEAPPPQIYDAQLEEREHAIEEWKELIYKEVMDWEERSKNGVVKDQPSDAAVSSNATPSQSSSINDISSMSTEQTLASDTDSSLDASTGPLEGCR

[4] = target: Serine/threonine-protein kinase N2 (Homo sapiens) (UniProt Q16513); assay: Residual activity of PRK2 at 1 uM by microplate scintillation counting
Sequence of Serine/threonine-protein kinase N2 (Homo sapiens) (Q16513 whole entry, looked up): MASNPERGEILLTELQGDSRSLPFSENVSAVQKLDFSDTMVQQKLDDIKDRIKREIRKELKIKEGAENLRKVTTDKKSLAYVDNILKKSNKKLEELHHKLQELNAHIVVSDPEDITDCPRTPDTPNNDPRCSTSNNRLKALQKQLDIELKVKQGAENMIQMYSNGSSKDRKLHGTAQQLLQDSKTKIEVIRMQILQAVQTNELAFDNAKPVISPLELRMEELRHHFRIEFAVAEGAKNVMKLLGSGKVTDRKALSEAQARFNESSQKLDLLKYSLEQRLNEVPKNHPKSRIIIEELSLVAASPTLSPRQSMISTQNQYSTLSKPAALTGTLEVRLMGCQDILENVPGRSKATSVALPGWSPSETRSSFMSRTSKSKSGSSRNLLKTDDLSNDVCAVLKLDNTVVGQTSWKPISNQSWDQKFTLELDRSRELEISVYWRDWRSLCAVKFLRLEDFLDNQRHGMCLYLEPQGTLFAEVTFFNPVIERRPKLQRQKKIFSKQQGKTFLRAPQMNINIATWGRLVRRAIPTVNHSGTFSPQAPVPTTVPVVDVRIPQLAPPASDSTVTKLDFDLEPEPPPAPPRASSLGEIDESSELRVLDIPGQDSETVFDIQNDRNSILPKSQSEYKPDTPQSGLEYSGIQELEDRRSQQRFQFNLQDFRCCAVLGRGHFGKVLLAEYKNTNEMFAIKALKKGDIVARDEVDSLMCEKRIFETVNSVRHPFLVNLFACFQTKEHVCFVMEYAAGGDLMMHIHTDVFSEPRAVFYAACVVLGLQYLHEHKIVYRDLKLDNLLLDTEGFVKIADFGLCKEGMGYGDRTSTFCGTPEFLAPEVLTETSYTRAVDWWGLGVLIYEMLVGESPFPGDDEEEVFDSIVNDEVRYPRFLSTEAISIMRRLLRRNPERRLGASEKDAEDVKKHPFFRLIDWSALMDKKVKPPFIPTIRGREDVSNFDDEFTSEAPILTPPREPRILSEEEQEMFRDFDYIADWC

[5] = target: T1, cGMP-dependent protein kinase 2 (Homo sapiens) (UniProt Q13237); assay: Residual activity of PRKG2 at 1 uM by microplate scintillation counting
T1 sequence (whole entry): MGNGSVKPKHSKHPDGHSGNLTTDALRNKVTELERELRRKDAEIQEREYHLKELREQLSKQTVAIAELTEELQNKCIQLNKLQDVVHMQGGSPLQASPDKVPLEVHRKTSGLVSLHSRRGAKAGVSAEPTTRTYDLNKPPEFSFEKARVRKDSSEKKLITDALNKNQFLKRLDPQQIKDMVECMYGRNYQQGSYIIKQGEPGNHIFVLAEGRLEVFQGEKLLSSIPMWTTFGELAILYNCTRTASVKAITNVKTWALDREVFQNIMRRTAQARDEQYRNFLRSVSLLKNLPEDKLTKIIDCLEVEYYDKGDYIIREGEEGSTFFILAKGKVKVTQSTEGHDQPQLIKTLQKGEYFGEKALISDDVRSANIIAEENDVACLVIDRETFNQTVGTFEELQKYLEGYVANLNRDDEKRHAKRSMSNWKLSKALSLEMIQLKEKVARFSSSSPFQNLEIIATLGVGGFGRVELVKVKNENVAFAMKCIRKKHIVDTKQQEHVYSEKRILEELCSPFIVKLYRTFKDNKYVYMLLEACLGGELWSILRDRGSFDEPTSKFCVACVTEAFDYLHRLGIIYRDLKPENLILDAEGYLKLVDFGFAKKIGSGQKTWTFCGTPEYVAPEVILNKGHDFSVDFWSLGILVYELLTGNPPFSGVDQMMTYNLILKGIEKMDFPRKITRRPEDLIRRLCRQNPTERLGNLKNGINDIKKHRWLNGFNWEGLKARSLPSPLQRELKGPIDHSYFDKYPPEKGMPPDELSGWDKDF

[6] = target: Proto-oncogene tyrosine-protein kinase receptor Ret (Homo sapiens) (UniProt P07949); assay: Residual activity of RET at 1 uM by microplate scintillation counting
[7] = Residual activity of S6K at 1 uM by microplate scintillation counting
[8] = target: Casein kinase I isoform gamma-2 (Homo sapiens) (UniProt P78368); assay: Residual activity of CK1gamma2 at 10 uM by microplate scintillation counting
[9] = target: Insulin receptor-related protein (Homo sapiens) (UniProt P14616); assay: Residual activity of INSRR at 10 uM by microplate scintillation counting
Sequence of Insulin receptor-related protein (Homo sapiens) (P14616 27-742 limits assumed): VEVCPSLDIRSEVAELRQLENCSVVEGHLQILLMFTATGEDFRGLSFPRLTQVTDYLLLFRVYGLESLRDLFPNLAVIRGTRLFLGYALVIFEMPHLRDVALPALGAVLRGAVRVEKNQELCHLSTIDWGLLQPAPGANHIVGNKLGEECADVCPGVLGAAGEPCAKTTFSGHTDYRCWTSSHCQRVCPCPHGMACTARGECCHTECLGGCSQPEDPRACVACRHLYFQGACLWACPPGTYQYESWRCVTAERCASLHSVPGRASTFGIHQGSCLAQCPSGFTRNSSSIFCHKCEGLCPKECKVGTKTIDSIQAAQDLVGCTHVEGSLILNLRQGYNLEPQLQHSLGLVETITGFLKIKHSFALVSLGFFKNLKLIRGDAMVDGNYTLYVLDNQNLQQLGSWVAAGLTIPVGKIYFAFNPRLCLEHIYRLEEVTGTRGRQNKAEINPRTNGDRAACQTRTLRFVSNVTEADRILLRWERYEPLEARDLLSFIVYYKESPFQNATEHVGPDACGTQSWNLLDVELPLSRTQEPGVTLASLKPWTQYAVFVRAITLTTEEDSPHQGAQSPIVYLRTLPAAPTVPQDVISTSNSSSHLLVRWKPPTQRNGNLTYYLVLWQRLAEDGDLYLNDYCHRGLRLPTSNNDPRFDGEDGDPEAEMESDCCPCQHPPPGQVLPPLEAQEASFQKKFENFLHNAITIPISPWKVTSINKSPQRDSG
Sequence of Insulin receptor-related protein (Homo sapiens) (P14616 747-1297 limits assumed): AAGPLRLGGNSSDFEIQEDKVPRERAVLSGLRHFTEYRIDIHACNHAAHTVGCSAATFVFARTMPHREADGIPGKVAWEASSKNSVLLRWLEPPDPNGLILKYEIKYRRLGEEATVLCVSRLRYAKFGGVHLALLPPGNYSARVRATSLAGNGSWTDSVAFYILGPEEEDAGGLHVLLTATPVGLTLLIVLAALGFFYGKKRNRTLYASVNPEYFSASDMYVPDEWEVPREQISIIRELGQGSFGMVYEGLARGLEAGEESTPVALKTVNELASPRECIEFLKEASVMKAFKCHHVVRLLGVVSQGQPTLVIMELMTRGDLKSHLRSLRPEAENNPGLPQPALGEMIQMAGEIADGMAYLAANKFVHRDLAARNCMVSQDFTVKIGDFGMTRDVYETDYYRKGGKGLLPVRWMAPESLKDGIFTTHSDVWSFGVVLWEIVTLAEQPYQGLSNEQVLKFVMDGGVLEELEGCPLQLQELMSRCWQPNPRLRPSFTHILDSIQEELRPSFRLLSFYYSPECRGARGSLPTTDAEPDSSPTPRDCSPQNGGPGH

[10] = target: T2, Activin receptor type-1B (Homo sapiens) (UniProt P36896); assay: Residual activity of ACVR1B at 1 uM by microplate scintillation counting
T2 sequence (whole entry): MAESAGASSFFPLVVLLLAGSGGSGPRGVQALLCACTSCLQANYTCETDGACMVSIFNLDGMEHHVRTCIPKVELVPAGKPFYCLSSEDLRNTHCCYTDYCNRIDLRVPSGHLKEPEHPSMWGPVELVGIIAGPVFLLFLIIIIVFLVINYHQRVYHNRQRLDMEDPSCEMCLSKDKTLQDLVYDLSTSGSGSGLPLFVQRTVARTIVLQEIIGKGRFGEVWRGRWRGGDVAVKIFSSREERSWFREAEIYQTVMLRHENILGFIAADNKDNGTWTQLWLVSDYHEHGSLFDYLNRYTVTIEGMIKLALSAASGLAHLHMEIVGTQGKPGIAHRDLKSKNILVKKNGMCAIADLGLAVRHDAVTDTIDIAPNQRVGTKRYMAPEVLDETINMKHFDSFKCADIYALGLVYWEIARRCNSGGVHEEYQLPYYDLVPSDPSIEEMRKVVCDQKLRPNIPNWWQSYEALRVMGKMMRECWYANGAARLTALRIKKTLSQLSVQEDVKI

[11] = target: T3, Serine/threonine-protein kinase Nek11 (Homo sapiens) (UniProt Q8NG66); assay: Residual activity of NEK11 at 10 uM by microplate scintillation counting
T3 sequence (whole entry): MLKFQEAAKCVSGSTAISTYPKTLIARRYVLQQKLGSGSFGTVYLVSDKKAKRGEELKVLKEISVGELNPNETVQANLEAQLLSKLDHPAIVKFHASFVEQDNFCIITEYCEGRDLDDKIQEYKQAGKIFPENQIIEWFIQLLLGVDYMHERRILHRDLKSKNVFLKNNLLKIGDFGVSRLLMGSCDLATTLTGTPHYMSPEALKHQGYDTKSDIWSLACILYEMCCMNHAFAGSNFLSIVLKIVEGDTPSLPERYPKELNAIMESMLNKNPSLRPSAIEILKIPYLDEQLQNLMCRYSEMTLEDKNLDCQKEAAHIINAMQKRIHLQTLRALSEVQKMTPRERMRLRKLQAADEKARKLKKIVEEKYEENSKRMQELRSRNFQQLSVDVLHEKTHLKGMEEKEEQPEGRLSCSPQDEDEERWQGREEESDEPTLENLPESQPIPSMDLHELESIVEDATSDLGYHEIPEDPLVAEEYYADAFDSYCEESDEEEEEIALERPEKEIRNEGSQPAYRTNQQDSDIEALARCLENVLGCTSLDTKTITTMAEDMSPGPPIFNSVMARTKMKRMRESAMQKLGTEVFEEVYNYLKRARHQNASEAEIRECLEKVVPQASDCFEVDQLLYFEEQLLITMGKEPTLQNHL

[12] = target: Serine/threonine-protein kinase pim-1 (Homo sapiens) (UniProt P11309); assay: Residual activity of PIM1 at 10 uM by microplate scintillation counting
[13] = target: Protein-tyrosine kinase 6 (Homo sapiens) (UniProt Q13882); assay: Residual activity of BRK at 0.1 uM by microplate scintillation counting
[14] = target: Serine/threonine-protein kinase Nek6 (Homo sapiens) (UniProt Q9HC98); assay: Residual activity of NEK6 at 0.1 uM by microplate scintillation counting
[15] = target: Ribosomal protein S6 kinase beta-2 (Homo sapiens) (UniProt Q9UBS0); assay: Residual activity of S6Kbeta at 10 uM by microplate scintillation counting
Sequence of Ribosomal protein S6 kinase beta-2 (Homo sapiens) (Q9UBS0 whole entry): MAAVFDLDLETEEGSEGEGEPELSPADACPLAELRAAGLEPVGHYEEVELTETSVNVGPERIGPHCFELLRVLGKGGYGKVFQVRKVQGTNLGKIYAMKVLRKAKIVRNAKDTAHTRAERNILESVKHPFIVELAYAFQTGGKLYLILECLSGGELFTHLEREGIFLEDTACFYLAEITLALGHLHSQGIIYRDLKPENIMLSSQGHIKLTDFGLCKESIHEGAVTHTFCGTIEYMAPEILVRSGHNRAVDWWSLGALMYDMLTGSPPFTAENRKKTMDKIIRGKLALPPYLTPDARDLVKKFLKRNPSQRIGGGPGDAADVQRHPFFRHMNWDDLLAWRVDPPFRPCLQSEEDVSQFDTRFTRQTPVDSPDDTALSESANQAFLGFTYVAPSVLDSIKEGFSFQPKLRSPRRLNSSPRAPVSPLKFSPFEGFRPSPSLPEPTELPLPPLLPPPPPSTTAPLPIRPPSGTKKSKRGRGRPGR

[16] = target: Serine/threonine-protein kinase PLK3 (Homo sapiens) (UniProt Q9H4B4); assay: Residual activity of PLK3 at 0.1 uM by microplate scintillation counting
Sequence of Serine/threonine-protein kinase PLK3 (Homo sapiens) (Q9H4B4 whole entry, looked up): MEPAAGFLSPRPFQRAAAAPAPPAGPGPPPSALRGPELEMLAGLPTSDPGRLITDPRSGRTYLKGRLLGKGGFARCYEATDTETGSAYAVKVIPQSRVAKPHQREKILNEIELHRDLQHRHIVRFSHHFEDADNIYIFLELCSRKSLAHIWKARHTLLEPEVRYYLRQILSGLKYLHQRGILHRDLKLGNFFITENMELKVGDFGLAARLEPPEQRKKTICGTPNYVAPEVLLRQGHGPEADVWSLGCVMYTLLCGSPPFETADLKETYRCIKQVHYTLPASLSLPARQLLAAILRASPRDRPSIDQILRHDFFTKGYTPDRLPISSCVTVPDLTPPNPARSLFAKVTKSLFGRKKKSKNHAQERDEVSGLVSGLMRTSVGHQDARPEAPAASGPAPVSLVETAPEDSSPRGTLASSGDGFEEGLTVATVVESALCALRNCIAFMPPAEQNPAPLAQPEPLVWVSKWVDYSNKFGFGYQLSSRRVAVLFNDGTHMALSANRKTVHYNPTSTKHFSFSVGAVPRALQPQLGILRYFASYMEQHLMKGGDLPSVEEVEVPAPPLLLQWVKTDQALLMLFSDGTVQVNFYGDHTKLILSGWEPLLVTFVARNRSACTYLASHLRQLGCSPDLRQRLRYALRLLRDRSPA

[17] = target: 3-phosphoinositide-dependent protein kinase 1 (Homo sapiens) (UniProt O15530); assay: Residual activity of PDK1 at 0.1 uM by microplate scintillation counting

| residual activity [1] | residual activity [2] | residual activity [3] | residual activity [4] | residual activity [5] | residual activity [6] | residual activity [7] | residual activity [8] | residual activity [9] | residual activity [10] | residual activity [11] | residual activity [12] | residual activity [13] | residual activity [14] | residual activity [15] | residual activity [16] | residual activity [17] | SMILES |
| --- | --- | --- | --- | --- | --- | --- | --- | --- | --- | --- | --- | --- | --- | --- | --- | --- | --- |
| 90% | 86% | 90% | 97% | 84% | 81% | 75% | 198% | 43% | 96% | 81% | 74% | 57% | 93% | 85% | 87% | 95% | COc1cc2c(Oc3ccc(-c4nc5ccccc5s4)cc3)ncnc2cc1OCCCN1CCCC1 |
| 113% | 81% | 119% | 70% | 85% | 58% | 95% | 226% | 7% | 89% | 83% | 97% | 35% | 98% | 77% | 87% | 97% | COc1cc2c(Oc3ccc(-c4nc5ccccc5s4)cc3F)ncnc2cc1OCCCN1CCN(C)CC1 |
| 97% | 84% | 121% | 66% | 96% | 68% | 69% | 217% | 51% | 85% | 113% | 124% | 65% | 93% | 75% | 88% | 95% | COc1cc2c(Oc3ccc(-c4nc5ccccc5s4)cc3)ncnc2cc1OCCCN1CCN(C)CC1 |
